Results: article PMC9239083, “C6 Hydroxymethyl-Substituted Carbapenem MA-1-206 Inhibits the Major Acinetobacter baumannii Carbapenemase OXA-23 by Impeding Deacylation” (mBio, 2022)

Target: OXA-23 (Acinetobacter baumannii, UniProt Q9L4P2)
Test: X-ray crystal structures (seven soak time points); Ki by nitrocefin competition kinetics with purified enzyme
Type: biochemical
Excerpt: X-ray crystal structures (seven soak time points); Ki by nitrocefin competition kinetics with purified enzyme on OXA-23 | The compound is covalently attached to the Ser79 side chain and anchored by six hydrogen bonds.

Sequence of OXA-23 (Q9L4P2 18-273): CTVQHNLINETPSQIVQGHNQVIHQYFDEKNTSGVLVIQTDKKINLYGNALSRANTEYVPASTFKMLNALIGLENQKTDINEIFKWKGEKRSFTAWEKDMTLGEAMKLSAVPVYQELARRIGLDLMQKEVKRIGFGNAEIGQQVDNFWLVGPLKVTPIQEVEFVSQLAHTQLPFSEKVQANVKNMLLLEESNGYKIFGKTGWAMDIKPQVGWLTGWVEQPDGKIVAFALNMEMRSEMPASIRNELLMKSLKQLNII

Work on `CN(C)C(=O)[C@@H]1C[C@H](SC2=C(C(=O)O)N3C(=O)[C@H](CO)[C@H]3C2)CN1` [MA-1-206] yielded a Ki of 26 ± 2 nM.
